A short description of data set [1]: The drug is tested on Collinsella intestinalis strain: DSM13280 for biotransformation. The drug concentrations were measured before and after a 12-h incubation by liquid-chromatography-coupled mass spectrometry (LC–MS). The conditions noted are these: 2 µM.
Data set [2] is described as follows: The drug is tested on Bacteroides caccae strain: ATCC43185 for biotransformation. The drug concentrations were measured before and after a 12-h incubation by liquid-chromatography-coupled mass spectrometry (LC–MS). To be noted: 2 µM.
Data set [3] is described as follows: The drug is tested on Bacteroides finegoldii strain: DSM17565 for biotransformation. The drug concentrations were measured before and after a 12-h incubation by liquid-chromatography-coupled mass spectrometry (LC–MS). To be noted: 2 µM.
The nature of data set [4]: The drug is tested on Bacteroides fragilis strain: ATCC43859 for biotransformation. The drug concentrations were measured before and after a 12-h incubation by liquid-chromatography-coupled mass spectrometry (LC–MS). To be noted: 2 µM.
A short description of data set [5]: The drug is tested on Anaerococcus hydrogenalis strain: DSM7454 for biotransformation. The drug concentrations were measured before and after a 12-h incubation by liquid-chromatography-coupled mass spectrometry (LC–MS). The conditions noted are these: 2 µM.
Data set [6] can be described thus: The drug is tested on Anaerotruncus colihominis strain: DSM17241 for biotransformation. The drug concentrations were measured before and after a 12-h incubation by liquid-chromatography-coupled mass spectrometry (LC–MS). The conditions noted are these: 2 µM.
Data set [7] can be described thus: The drug is tested on Blautia luti strain: DSM14534 for biotransformation. The drug concentrations were measured before and after a 12-h incubation by liquid-chromatography-coupled mass spectrometry (LC–MS). Further details: dose 2 uM, timepoint 0 vs 12 hours. To be noted: 2 µM. The data set is classed as ADME.
Data set [8] can be described thus: The drug is tested on Clostridium sp. strain: fecal isolate for biotransformation. The drug concentrations were measured before and after a 12-h incubation by liquid-chromatography-coupled mass spectrometry (LC–MS). The conditions noted are these: 2 µM.
The nature of data set [9]: The drug is tested on Clostridium scindens strain: ATCC35704 for biotransformation. The drug concentrations were measured before and after a 12-h incubation by liquid-chromatography-coupled mass spectrometry (LC–MS). To be noted: 2 µM.
Data set [10] in a line: The drug is tested on Clostridium sporogenes strain: ATCC15579 for biotransformation. The drug concentrations were measured before and after a 12-h incubation by liquid-chromatography-coupled mass spectrometry (LC–MS). The conditions noted are these: 2 µM.
Data set [11] in a line: The drug is tested on Ruminococcus gnavus strain: ATCC29149 for biotransformation. The drug concentrations were measured before and after a 12-h incubation by liquid-chromatography-coupled mass spectrometry (LC–MS). The conditions noted are these: mediterraneibacter gnavus, 2 µM.
The nature of data set [12]: The drug is tested on Subdoligranulum variabile strain: DSM15176 for biotransformation. The drug concentrations were measured before and after a 12-h incubation by liquid-chromatography-coupled mass spectrometry (LC–MS). The conditions noted are these: 2 µM.
The nature of data set [13]: The drug is tested on Edwardsiella tarda strain: ATCC23685 for biotransformation. The drug concentrations were measured before and after a 12-h incubation by liquid-chromatography-coupled mass spectrometry (LC–MS). To be noted: 2 µM.
The nature of data set [14]: The drug is tested on Providencia rettgeri strain: DSM1131 for biotransformation. The drug concentrations were measured before and after a 12-h incubation by liquid-chromatography-coupled mass spectrometry (LC–MS). The data set is classed as ADME. Also noted: dose 2 uM, timepoint 0 vs 12 hours. To be noted: 2 µM.
For data set [15] the following is noted: parabacteroides distasonis, 12 h, 2 µM.
Description: The drug is tested on Parabacteroides distasonis strain: ATCC8503 for biotransformation. The drug concentrations were measured before and after a 12-h incubation by liquid-chromatography-coupled mass spectrometry (LC–MS)
Data set [16] can be described thus: The drug is tested on Parabacteroides merdae strain: ATCC43184 for biotransformation. The drug concentrations were measured before and after a 12-h incubation by liquid-chromatography-coupled mass spectrometry (LC–MS). To be noted: 2 µM.
The nature of data set [17]: The drug is tested on Enterobacter cancerogenus strain: ATCC35316 for biotransformation. The drug concentrations were measured before and after a 12-h incubation by liquid-chromatography-coupled mass spectrometry (LC–MS). The conditions noted are these: 2 µM.
For data set [18] the following is noted: bacteroides stercoris, 12 h, 2 µM.
Description: The drug is tested on Bacteroides stercoris strain: ATCC43183 for biotransformation. The drug concentrations were measured before and after a 12-h incubation by liquid-chromatography-coupled mass spectrometry (LC–MS)
For data set [19] the following is noted: bacteroides thetaiotaomicron, 12 h, 2 µM.
Description: The drug is tested on Bacteroides thetaiotaomicron strain: 3731 for biotransformation. The drug concentrations were measured before and after a 12-h incubation by liquid-chromatography-coupled mass spectrometry (LC–MS)

Here are results for seven compounds from ChEMBL document CHEMBL5303573, “Mapping human microbiome drug metabolism by gut bacteria and their genes” (Nature, 2019).

`CCN(CC)CCNC(=O)c1ccc(NC(C)=O)cc1` [ACECAINIDE]: the “Bacterial Biotransformation” value was “Compound NOT metabolized” in [1]; “Compound NOT metabolized” in data set [2]; “Compound NOT metabolized” in [3]; “Compound metabolized” in [4]; “Compound NOT metabolized” in [5]; “Compound NOT metabolized” in data set [6]. The “Bacterial Biotransformation” value in [7], in [8], in data set [9], in [10], in [11] and in [12] was “Compound NOT metabolized” each time. Moreover, the “Bacterial Biotransformation” value in data set [13], in [14] and in data set [15] was “Compound NOT metabolized” each time.

`CN(C)CCc1c[nH]c2ccc(CS(=O)(=O)N3CCCC3)cc12` [ALMOTRIPTAN]: the “Bacterial Biotransformation” value in [1], in data set [2], in [3], in data set [16], in [5] and in data set [6] was “Compound NOT metabolized” each time. The “Bacterial Biotransformation” value in data set [7], in data set [8], in data set [9], in [10], in [11] and in data set [12] was “Compound NOT metabolized” throughout. The “Bacterial Biotransformation” value in [13], in data set [17], in data set [14], in data set [18] and in [15] was “Compound NOT metabolized” each time.

For the compound `C=CCc1ccccc1OCC(O)CNC(C)C` (centres undefined) [ALPRENOLOL], the “Bacterial Biotransformation” value in [1], in data set [2], in data set [3], in [16], in data set [5] and in data set [6] was “Compound NOT metabolized” in each case. The “Bacterial Biotransformation” value in [7], in data set [8], in data set [9], in data set [10], in data set [11] and in data set [12] was “Compound NOT metabolized” each time. Also, the “Bacterial Biotransformation” value in data set [13], in [14] and in [18] was “Compound NOT metabolized” in each case.

With `Clc1ccc(Cn2c(CN3CCCC3)nc3ccccc32)cc1` [CLEMIZOLE], the “Bacterial Biotransformation” value in data set [1], in data set [2], in data set [3], in data set [4], in data set [16] and in data set [5] was “Compound NOT metabolized” in each case. The “Bacterial Biotransformation” value in data set [7], in data set [9], in data set [10], in data set [11], in [12] and in [13] was “Compound NOT metabolized” each time. For the same compound, the “Bacterial Biotransformation” value in data set [17], in data set [14], in [18], in [19] and in [15] was “Compound NOT metabolized” each time.

`C[N+]12CCC(CC1)C(OC(=O)C(O)(c1ccccc1)c1ccccc1)C2.[Br-]` (centres undefined) [CLIDINIUM BROMIDE]: the “Bacterial Biotransformation” value in data set [1], in data set [2], in data set [3], in data set [16], in data set [5] and in data set [6] was “Compound NOT metabolized” throughout. In addition, the “Bacterial Biotransformation” value in data set [7], in data set [8], in data set [9], in [10], in data set [11] and in data set [12] was “Compound NOT metabolized” in each case. Besides, the “Bacterial Biotransformation” value in data set [13], in data set [14], in data set [18], in [19] and in data set [15] was “Compound NOT metabolized” each time.

Turning to `COc1cc2c(c(OC)c1OC)-c1ccc(OC)c(=O)cc1[C@@H](NC(C)=O)CC2` [COLCHICINE], the “Bacterial Biotransformation” value in [1] is listed as “Compound NOT metabolized”; in data set [4] it was “Compound metabolized”; in data set [16], “Compound NOT metabolized”; in data set [5] it was “Compound NOT metabolized”; in data set [6] it was “Compound NOT metabolized”; in [7] it was “Compound NOT metabolized”. Besides, the “Bacterial Biotransformation” value was “Compound metabolized” in data set [8]; “Compound NOT metabolized” in [9]; “Compound metabolized” in data set [10]; “Compound NOT metabolized” in [12]; “Compound NOT metabolized” in data set [13]; “Compound NOT metabolized” in [14]. Moreover, the “Bacterial Biotransformation” value in [18], in data set [19] and in data set [15] was “Compound metabolized” each time.

On to `O=P1(N(CCCl)CCCl)NCCCO1` (centres undefined) [CYCLOPHOSPHAMIDE ANHYDROUS], for which the “Bacterial Biotransformation” value in [1], in [3], in data set [16], in data set [5], in [7] and in [8] was “Compound NOT metabolized” each time. Besides, the “Bacterial Biotransformation” value in [10], in data set [11], in [12], in data set [17], in data set [18] and in data set [19] was “Compound NOT metabolized” throughout. In data set [15], the “Bacterial Biotransformation” value is “Compound NOT metabolized”.
